Mutagenic call data for seven compounds are collected here from PubChem BioAssay AID1259407 (Chemical Carcinogenesis Research Information System (CCRIS), 2018).

The source made the active and inactive calls. The rule behind the calls is not given here.

This series relates to CCRIS mutagenicity, Ames/micronucleus/aberration tests. The series can be described thus: CCRIS mutagenicity studies.
[1] abbreviates: Test System: AMES SALMONELLA TYPHIMURIUM, Strain/Indicator: TA98, Metabolic Activation: NONE, Method: STANDARD PLATE.
Where [2] appears, read: Test System: AMES SALMONELLA TYPHIMURIUM, Strain/Indicator: TA98, Metabolic Activation: RAT, LIVER, S-9, AROCLOR 1254, Method: STANDARD PLATE.
The mark [3] stands for this setting: Test System: AMES SALMONELLA TYPHIMURIUM, Strain/Indicator: TA100, Metabolic Activation: NONE, Method: STANDARD PLATE.
Setting [4] is: Test System: AMES SALMONELLA TYPHIMURIUM, Strain/Indicator: TA102, Metabolic Activation: NONE, Method: STANDARD PLATE.
Setting [5] is: Test System: AMES SALMONELLA TYPHIMURIUM, Strain/Indicator: TA98, Metabolic Activation: NONE, Method: PREINCUBATION

In the case of `O=[N+]([O-])c1ccc2c3c4c(cccc4c4ccccc4c13)C1OC21` (configuration not stated), the mutagenic call was “inactive; negative” (Test System: AMES SALMONELLA TYPHIMURIUM, Strain/Indicator: TA98(1,8-DNP6), Metabolic Activation: NONE, Method: STANDARD PLATE); “inactive; negative” (Test System: AMES SALMONELLA TYPHIMURIUM, Strain/Indicator: TA98(1,8-DNP6), Metabolic Activation: RAT, LIVER, S-9, AROCLOR 1254, Method: STANDARD PLATE); “inactive; negative” (Test System: AMES SALMONELLA TYPHIMURIUM, Strain/Indicator: TA98(NR), Metabolic Activation: NONE, Method: STANDARD PLATE); “inactive; negative” (Test System: AMES SALMONELLA TYPHIMURIUM, Strain/Indicator: TA98(NR), Metabolic Activation: RAT, LIVER, S-9, AROCLOR 1254, Method: STANDARD PLATE); “active; positive” under setting [1]; “active; positive” under setting [2].

For the compound `OC[C@H]1O[C@@H](n2cnc3c(NO)ncnc32)[C@H](O)[C@@H]1O`, the mutagenic call runs as follows: under setting [1], “active; positive”; (Test System: AMES SALMONELLA TYPHIMURIUM, Strain/Indicator: TA100(TN5-1,8-DNP1011), Metabolic Activation: NONE, Method: STANDARD PLATE) “active; positive”; (Test System: AMES SALMONELLA TYPHIMURIUM, Strain/Indicator: TA100(TN5-1,8-DNP1012), Metabolic Activation: NONE, Method: STANDARD PLATE) “active; positive”; under setting [3], “active; positive”; under setting [4], “inactive; negative”.

In the case of `CC(C)(O)[C@H]1CC[C@@](C)([C@H]2[C@@H](O)C[C@@]3(C)[C@@H]4CC[C@H]5C(C)(C)C(=O)CC[C@@]56C[C@@]46CC[C@]23C)O1`, the mutagenic call (End Point: IN VITRO MICRONUCLEUS, Test System: HUMAN PERIPHERAL LYMPHOCYTES, Metabolic Activation: NONE) is “inactive; negative”.

In the case of `Nc1cc(N)c(-c2ccccc2)c([N+](=O)[O-])c1`, the mutagenic call under setting [5] was “active; positive” and the mutagenic call (Test System: AMES SALMONELLA TYPHIMURIUM, Strain/Indicator: TA98, Metabolic Activation: RAT, LIVER, S-9, KANECHLOR 500, Method: PREINCUBATION) was “active; positive”.

Consider `Cc1nc2c(c3[nH]c4ccccc4c13)C(=O)C(N1CC1)=CC2=O`, for which the mutagenic call is “active; positive” (Test System: AMES SALMONELLA TYPHIMURIUM, Strain/Indicator: TA97, Metabolic Activation: NONE, Method: STANDARD PLATE); “active; positive” (Test System: AMES SALMONELLA TYPHIMURIUM, Strain/Indicator: TA97, Metabolic Activation: RAT, LIVER, S-9, AROCLOR 1254, Method: STANDARD PLATE); “active; positive” under setting [1]; “active; positive” under setting [2]; “active; positive” under setting [3]; “active; positive” (Test System: AMES SALMONELLA TYPHIMURIUM, Strain/Indicator: TA100, Metabolic Activation: RAT, LIVER, S-9, AROCLOR 1254, Method: STANDARD PLATE). Also, the mutagenic call under setting [4] is “active; positive” and the mutagenic call (Test System: AMES SALMONELLA TYPHIMURIUM, Strain/Indicator: TA102, Metabolic Activation: RAT, LIVER, S-9, AROCLOR 1254, Method: STANDARD PLATE) is “active; positive”.

Regarding `C[C@H](CCC(=O)O)[C@H]1CC[C@H]2[C@@H]3CC[C@@H]4C[C@@H](O)CC[C@]4(C)[C@H]3CC(=O)[C@]12C`, the mutagenic call is “inactive; negative” (Test System: AMES SALMONELLA TYPHIMURIUM, Strain/Indicator: TA98, Metabolic Activation: NONE, Method: FLUCTUATION TEST); “inactive; negative” under setting [5]; “inactive; negative” (Test System: AMES SALMONELLA TYPHIMURIUM, Strain/Indicator: TA98, Metabolic Activation: RAT, LIVER, S-9, PCB, Method: PREINCUBATION); “inactive; negative” (Test System: AMES SALMONELLA TYPHIMURIUM, Strain/Indicator: TA100, Metabolic Activation: NONE, Method: FLUCTUATION TEST).

Turning to `Cc1c(C)c2c3c(ccc2c2ccccc12)[C@@H](O)[C@H](O)[C@@H]1O[C@H]31`, the mutagenic call under setting [3] was “active; positive”.
